Laboratory results as given in patent US20230414735A1, “NEOANTIGENS AND METHODS OF THEIR USE” (priority 2016, published 2023).
Where no end group is shown, it is not given here.

What was measured:
[1] = target: HLA class I molecule; experiment: HLA class I peptide binding affinity assay (inhibition of 125I-radiolabeled probe peptide binding to purified HLA); parameters: species or system human; details: allele A02.01; read-out: Observed Affinity (IC50; (nM))
Experimental: Epstein-Barr virus (EBV)-transformed homozygous cell lines, fibroblasts, CIR, or 721.22 transfectants are used as sources of HLA class I molecules. […] HLA molecules are purified from lysates by affinity chromatography. The lysates are passed over a column of Sepharose CL-4B beads coupled to an appropriate antibody. […] A 1/25 volume of 2.0 M Tris, pH 6.8, is added to the eluate to reduce the pH to […]. Eluates are then concentrated by centrifugation in Centriprep 30 concentrators (Amicon, Beverly, MA). Protein content is evaluated by a BCA protein assay (Pierce Chemical Co., Rockford, IL) and confirmed by SDS-PAGE.
Following incubation, MHC-peptide complexes are separated from free peptide by gel filtration on 7.8 mm×15 cm TSK200 columns (TosoHaas 16215, Montgomeryville, PA). Because the large size of the radiolabeled peptide used for the DRB1*1501 (DR2w2(31) assay makes separation of bound from unbound peaks more difficult under these conditions, all DRB1*1501 (DR2w2(31) assays were performed using a 7.8 mm×30 cm TSK2000 column eluted at 0.6 mLs/min. The eluate from the TSK columns is passed through a Beckman 170 radioisotope detector, and radioactivity is plotted and integrated using a Hewlett-Packard 3396A integrator, and the fraction of peptide bound is determined.
Radiolabeled peptides are iodinated using the chloramine-T method. […] All subsequent inhibition and direct binding assays are performed using these HLA concentrations.
Since under these conditions [label]<[HLA] and IC50≥[HLA], the measured IC50 values are reasonable approximations of the true KD values. […] For database purposes, and inter-experiment comparisons, relative binding values are compiled. These values can subsequently be converted back into IC50 nM values by dividing the IC50 nM of the positive controls for inhibition by the relative binding of the peptide of interest.
HLA binding assays were used to evaluate either the affinity of interaction of a given epitope with a selected HLA molecule or the stability.
The measurements are plotted against the predicted affinity in FIG. 1.

[2] = test system: HLA Class I molecules; experiment: HLA class I binding stability assay (pMHC-I complex dissociation, 125I-labeled β2m, scintillation counts); parameters: species or system human
[3] = allele A02.01, pMHC-I dissociation at 37° C.

| Compound | Stability (T1/2 (h)) ([2]; allele A02.01, 37° C.) | Stability (T1/2 (h)) [2, 3] | also measured |
| --- | --- | --- | --- |
| CC(C)C[C@H](NC(=O)[C@H](C)N)C(=O)N[C@@H](CC(N)=O)C(=O)N[C@@H](CO)C(=O)N[C@@H](CCC(=O)O)C(=O)N[C@@H](C)C(=O)N[C@@H](CC(C)C)C(=O)N[C@@H](CO)C(=O)N[C@H](C(=O)N[C@H](C(=O)O)C(C)C)C(C)C | 2.9 h |  | IC50 [1]: 15 nM |
| CC(C)C[C@H](NC(=O)[C@H](CO)NC(=O)[C@H](CS)NC(=O)[C@H](CCC(=O)O)NC(=O)[C@H](Cc1c[nH]c2ccccc12)NC(=O)[C@H](CC(C)C)NC(=O)[C@H](C)NC(=O)[C@H](CC(C)C)NC(=O)[C@H](CC(C)C)NC(=O)[C@@H](N)Cc1ccccc1)C(=O)O | 10.8 h |  |  |
| C[C@H](NC(=O)[C@H](CO)NC(=O)[C@H](C)NC(=O)[C@@H]1CCCN1C(=O)[C@H](C)NC(=O)[C@@H]1CCCN1C(=O)[C@H](CCCNC(=N)N)NC(=O)[C@@H]1CCCN1C(=O)[C@@H](N)Cc1c[nH]cn1)C(=O)O |  |  | Stability (T1/2 (h)) ([2]; allele B07.02, 37° C.): 4.9 h |
| CSCC[C@H](NC(=O)[C@H](CC(C)C)NC(=O)[C@@H](N)CCCCN)C(=O)N[C@@H](CC(C)C)C(=O)N[C@@H](CC(C)C)C(=O)N[C@@H](CCCNC(=N)N)C(=O)N[C@@H](CC(C)C)C(=O)N[C@@H](CC(N)=O)C(=O)N[C@@H](CC(C)C)C(=O)O | 16.9 h |  | Stability (T1/2 (h)) ([2]; allele B07.02, 37° C.): 1.5 h |
| CC(C)C[C@H](NC(=O)[C@H](CO)NC(=O)[C@H](CS)NC(=O)[C@H](CCC(=O)O)NC(=O)[C@H](Cc1c[nH]c2ccccc12)NC(=O)[C@H](CC(C)C)NC(=O)[C@H](C)NC(=O)[C@H](CC(C)C)NC(=O)[C@@H](N)CC(C)C)C(=O)O | 4 h |  |  |
| CC[C@H](C)[C@H](NC(=O)[C@H](Cc1ccc(O)cc1)NC(=O)[C@H](CC(C)C)NC(=O)[C@@H](N)CC(C)C)C(=O)N[C@H](C(=O)N[C@@H](C)C(=O)N[C@@H](Cc1ccccc1)C(=O)N[C@@H](Cc1ccccc1)C(=O)N[C@@H](CC(C)C)C(=O)O)[C@@H](C)O | 17 h |  |  |
| CC(C)C[C@H](N)C(=O)N1CCC[C@H]1C(=O)N[C@@H](CCCNC(=N)N)C(=O)N[C@@H](CCCCN)C(=O)N1CCC[C@H]1C(=O)N[C@H](C(=O)N[C@@H](CCCNC(=N)N)C(=O)N[C@@H](C)C(=O)N[C@@H](C)C(=O)O)[C@@H](C)O |  |  | Stability (T1/2 (h)) ([2]; allele B07.02, 37° C.): 5.5 h |
| CSCC[C@H](NC(=O)[C@H](Cc1c[nH]c2ccccc12)NC(=O)[C@H](Cc1c[nH]cn1)NC(=O)[C@H](CC(N)=O)NC(=O)[C@H](CCCNC(=N)N)NC(=O)[C@H](CCCNC(=N)N)NC(=O)[C@H](CCC(N)=O)NC(=O)[C@H](CO)NC(=O)[C@@H]1CCCN1C(=O)[C@@H](N)CC(C)C)C(=O)O |  |  | Stability (T1/2 (h)) ([2]; allele B07.02, 37° C.): 6.5 h; Stability (T1/2 (h)) ([2]; allele B08.01, 37° C.): 0.7 h |
| CC(C)C[C@H](N)C(=O)N[C@H](C(=O)N[C@H](C(=O)N[C@H](C(=O)NCC(=O)N[C@@H](C)C(=O)N[C@H](C(=O)NCC(=O)N[C@H](C(=O)O)C(C)C)C(C)C)C(C)C)C(C)C)C(C)C | 0.6 h |  |  |
| CSCC[C@H](NC(=O)[C@H](CC(C)C)NC(=O)[C@H](CCC(N)=O)NC(=O)[C@@H](N)CCSC)C(=O)N1CCC[C@H]1C(=O)N[C@@H](Cc1ccccc1)C(=O)NCC(=O)N[C@@H](CS)C(=O)N[C@@H](CC(C)C)C(=O)O |  | 0.4 h |  |
| CSCC[C@H](NC(=O)[C@H](CC(C)C)NC(=O)[C@H](CCC(N)=O)NC(=O)[C@@H](N)CCSC)C(=O)N1CCC[C@H]1C(=O)N[C@@H](Cc1ccccc1)C(=O)NCC(=O)N[C@@H](CS)C(=O)N[C@@H](CC(C)C)C(=O)N[C@@H](CC(C)C)C(=O)O |  | 0.4 h |  |
| CC[C@H](C)[C@H](NC(=O)[C@H](CC(C)C)NC(=O)[C@@H](N)CCC(N)=O)C(=O)N[C@@H](CCSC)C(=O)N[C@@H](CCC(N)=O)C(=O)N[C@@H](CC(C)C)C(=O)N[C@@H](CCSC)C(=O)N1CCC[C@H]1C(=O)N[C@@H](Cc1ccccc1)C(=O)O |  | 0.3 h |  |
| CC(C)C[C@H](NC(=O)[C@H](Cc1c[nH]cn1)NC(=O)[C@H](CCC(=O)O)NC(=O)[C@H](Cc1ccccc1)NC(=O)[C@H](CCCCN)NC(=O)[C@H](CC(=O)O)NC(=O)[C@H](CCC(N)=O)NC(=O)[C@H](CC(C)C)NC(=O)[C@@H](N)CCC(N)=O)C(=O)O |  | 0.6 h |  |
| CC(C)C[C@H](NC(=O)[C@H](CO)NC(=O)[C@H](CC(N)=O)NC(=O)[C@H](CS)NC(=O)[C@H](CCC(=O)O)NC(=O)[C@H](Cc1c[nH]cn1)NC(=O)[C@H](CC(C)C)NC(=O)[C@@H](NC(=O)[C@@H](N)CCC(N)=O)C(C)C)C(=O)O | 0.5 h |  |  |
| CC(C)C[C@H](NC(=O)[C@@H]1CCCN1C(=O)[C@H](CS)NC(=O)[C@H](CC(C)C)NC(=O)[C@H](Cc1c[nH]cn1)NC(=O)[C@H](CC(N)=O)NC(=O)CNC(=O)[C@H](CC(C)C)NC(=O)[C@@H](N)CO)C(=O)O | 3.5 h |  | Stability (T1/2 (h)) ([2]; allele B08.01, 37° C.): 0.5 h |
| CC[C@H](C)[C@H](NC(=O)[C@H](Cc1ccccc1)NC(=O)[C@H](CCCNC(=N)N)NC(=O)[C@@H]1CCCN1C(=O)[C@H](CC(C)C)NC(=O)[C@@H](N)CO)C(=O)N[C@@H](CC(C)C)C(=O)N[C@@H](CCSC)C(=O)N[C@@H](CCC(=O)O)C(=O)N[C@@H](CC(C)C)C(=O)O |  | 0.5 h | Stability (T1/2 (h)) ([2]; allele B07.02, pMHC-I dissociation at 37° C.): 0.4 h |
| CC(C)[C@H](NC(=O)[C@H](CO)NC(=O)[C@H](Cc1ccccc1)NC(=O)[C@H](Cc1ccccc1)NC(=O)[C@H](Cc1ccccc1)NC(=O)[C@H](Cc1ccccc1)NC(=O)[C@H](CS)NC(=O)[C@@H](NC(=O)[C@@H](N)CO)C(C)C)C(=O)O |  | 9.4 h |  |
| CC(C)C[C@H](NC(=O)[C@H](C)NC(=O)[C@@H](NC(=O)[C@H](CCCNC(=N)N)NC(=O)[C@H](CO)NC(=O)[C@H](CC(=O)O)NC(=O)[C@H](CO)NC(=O)[C@H](CC(C)C)NC(=O)[C@@H](N)CCCCN)[C@@H](C)O)C(=O)O [KLSDSRTAL] | 2.8 h |  | Stability (T1/2 (h)) ([2]; allele B07.02, 37° C.): 6.8 h |
| KPTRAATVSV |  |  | Stability (T1/2 (h)) ([2]; allele B07.02, 37° C.): 3 h |
| KVLQMDFLV |  | 6.4 h |  |
| KVSRENTSPK |  |  | Stability (T1/2 (h)) ([2]; allele A03.01, 37° C.): 13.5 h |
| LPRKPTRAAT |  |  | Stability (T1/2 (h)) ([2]; allele B07.02, 37° C.): 3.7 h |
| MNWRPILTI | 3.8 h |  |  |

Further lines, with some results ahead:

| Stability (T1/2 (h)) ([2]; allele A02.01, 37° C.) | Stability (T1/2 (h)) [2, 3] | Compound | also measured |
| --- | --- | --- | --- |
|  | 5.1 h | CC[C@H](C)[C@H](NC(=O)[C@H](CC(C)C)NC(=O)[C@@H]1CCCN1C(=O)[C@H](Cc1ccccc1)NC(=O)[C@H](CC(C)C)NC(=O)[C@@H](N)CCC(=O)O)C(=O)N[C@@H](Cc1ccccc1)C(=O)N1CCC[C@H]1C(=O)N[C@@H](C)C(=O)O |  |
| 7.4 h |  | CC(C)C[C@H](NC(=O)CN)C(=O)N[C@H](C(=O)N[C@@H](CC(=O)O)C(=O)N[C@@H](CCC(=O)O)C(=O)N[C@@H](CCC(N)=O)C(=O)N[C@@H](CCC(N)=O)C(=O)N[C@@H](CCC(=O)O)C(=O)N[C@H](C(=O)O)C(C)C)C(C)C | IC50 [1]: 44 nM |
|  | 0.5 h | CC[C@H](C)[C@H](N)C(=O)N[C@@H](CCSC)C(=O)N[C@@H](CCC(N)=O)C(=O)N[C@@H](CC(C)C)C(=O)N[C@@H](CCSC)C(=O)N1CCC[C@H]1C(=O)N[C@@H](Cc1ccccc1)C(=O)NCC(=O)N[C@@H](CS)C(=O)N[C@@H](CC(C)C)C(=O)O |  |
|  | 0.2 h | CC[C@H](C)[C@H](N)C(=O)N[C@@H](CCC(N)=O)C(=O)N[C@@H](CC(C)C)C(=O)N[C@@H](CCC(N)=O)C(=O)N[C@@H](CC(=O)O)C(=O)N[C@@H](CCCCN)C(=O)N[C@@H](Cc1ccccc1)C(=O)N[C@@H](CCC(=O)O)C(=O)N[C@@H](Cc1c[nH]cn1)C(=O)N[C@@H](CC(C)C)C(=O)O |  |
|  | 3 h | CSCC[C@H](NC(=O)[C@H](CCC(=O)O)NC(=O)[C@H](CCCNC(=N)N)NC(=O)[C@H](CC(C)C)NC(=O)[C@H](Cc1ccc(O)cc1)NC(=O)[C@H](CC(N)=O)NC(=O)[C@H](CC(C)C)NC(=O)[C@H](CC(C)C)NC(=O)[C@@H](N)CO)C(=O)O |  |
| 1 h |  | CC[C@H](C)[C@H](NC(=O)[C@H](CCC(N)=O)NC(=O)[C@@H](N)CO)C(=O)N[C@@H](CCSC)C(=O)N[C@@H](CO)C(=O)N[C@@H](CC(C)C)C(=O)N[C@@H](Cc1c[nH]c2ccccc12)C(=O)NCC(=O)N[C@@H](CC(C)C)C(=O)O |  |
| 0.9 h |  | CC(C)[C@H](N)C(=O)N[C@H](C(=O)N1CCC[C@H]1C(=O)N[C@@H](CS)C(=O)N[C@@H](CCC(=O)O)C(=O)N1CCC[C@H]1C(=O)N1CCC[C@H]1C(=O)N[C@@H](CCC(=O)O)C(=O)N[C@H](C(=O)O)C(C)C)C(C)C | IC50 [1]: 187 nM |
| 1.2 h |  | IIIEYCFYG |  |
